According to US20070026080A1, “Manufacturing process for tigecycline” (Wyeth, priority 2005, published 2007):

Assay: Strength and degradation profile of tigecycline 20 mg/mL bulk solutions by reversed phase HPLC (effect of temperature, time, pH, dissolved oxygen; Runs A to O)
Format: physicochemical
Conditions: 8° C.
Procedure: The contents of the sample vials are dissolved in diluent. The sample solution is diluted, if necessary, and chromatographed on a reversed phase column using gradient elution. Impurities are determined by comparing the impurity peak areas in the sample preparation chromatogram to the average area of tigecycline peaks in the standard preparation chromatograms obtained concomitantly.
Chromatographic Column—Length about 15 cm, inside diameter about 4.6 mm, packed with Inertsil ODS2, 5 μm size particles or equivalent.
Detector—Ultraviolet spectrophotometric detector capable of operating at 248 nm with a sensitivity of about 0.5 absorbance units full scale.
The results of additional studies to investigate the effect of processing parameters such as temperature, time, and dissolved oxygen content on the purity profile of tigecycline solutions using the following materials, methods and procedures are presented in Tables A to O.
The experiments were run in plastic glove bags under normal laboratory light conditions. Plastic glove boxes will be used to control the headspace of the beakers. The batch size was 200 mL. • 1. Prepare the glove bag with a mixture of nitrogen and air to achieve an oxygen level in the solution as per the design. • 2. Place the jacketed beaker on the magnetic stirrer. Connect it to the cooler. Set the cooler to the desired set point. • 3. Add 200 mL of SWFI in to the beaker. Allow equilibrating. Measure the temperature and oxygen content. When it reaches the desired condition, add accurately weighed API and mix until dissolved. If necessary use spatula to aid dissolution. For pH adjustments, use 4 mL of either 0.1N NaOH or 0.1N HCl and 196 mL of WFI for manufacture. • 4. After complete dissolution, Transfer about 5.5 mL of Solution in vials and stopper them. These vials will be stoppered at the appropriate headspace conditions. Place the vials in appropriate temperature conditions. • 5. Sample the vials at 1, 4, 8, 10, 12 and 24 hours. Send the samples for analysis. Freeze the 10, 12 and 24 samples at −20° C. for analysis the following day. • 6. Measure pH and record color of the solution at each time point. Results
The 1-hour samples were taken directly from the beakers. Samples for later time points were collected in stoppered vials processed in the atmosphere of the bag in order to simulate the headspace conditions then placed in water baths or refrigerator to maintain there respective temperature conditions. This was done to maintain safety in the lab. Disposable plastic glove bags require constant flow of a mixture of nitrogen and air to maintain headspace oxygen level that will result in the desired dissolved oxygen (DO) content in the sample. The pH of samples was measured at each sample points.
Strength and degradation profile was analyzed by HPLC as described above. […] Degradation was slightly higher at higher temperature condition.

[1] = Run #M, pH 7.7, Oxygen = 0.1 mg/L, 10 Hrs
[2] = Run #M, pH 7.7, Oxygen = 0.1 mg/L, 12 Hrs
[3] = Run #M, pH 7.7, Oxygen = 0.1 mg/L, 24 Hrs
[4] = Run #N, pH 8.2, Oxygen = 0.1 mg/L, 1 Hrs
[5] = Run #N, pH 8.2, Oxygen = 0.1 mg/L, 1R Hrs
[6] = Run #N, pH 8.2, Oxygen = 0.1 mg/L, 4 Hrs

## CN(C)c1cc(NC(=O)CNC(C)(C)C)c(O)c2c1C[C@H]1C[C@H]3[C@H](N(C)C)C(O)=C(C(N)=O)C(=O)[C@@]3(O)C(O)=C1C2=O [Tigecycline]
[1]
  RRT 1.12: BRL (BRL means below reporting limit (meaning less than 0.05% of tigecycline peak))
  RRT 1.45: 0.07%
  RRT 1.58: BRL (BRL means below reporting limit (meaning less than 0.05% of tigecycline peak))
  RRT 1.64 Mino: 0.09%
  RRT 1.67 MW = 556: (<0.05) %
  RRT 1.85 MW = 597: 0.08%
  Strength: 19.240 mg/mL
  Total: 0.71%
[2]
  RRT 0.12 MW = 633: BRL (BRL means below reporting limit (meaning less than 0.05% of tigecycline peak))
  RRT 0.23 MW = 572: BRL (BRL means below reporting limit (meaning less than 0.05% of tigecycline peak))
  RRT 0.50 MW = 601: BRL (BRL means below reporting limit (meaning less than 0.05% of tigecycline peak))
  RRT 0.55 MW = 583: 0.07%
  RRT 0.58: BRL (BRL means below reporting limit (meaning less than 0.05% of tigecycline peak))
  RRT 0.64 9-Amino: BRL (BRL means below reporting limit (meaning less than 0.05% of tigecycline peak))
  RRT 0.74 Epimer: 0.27%
  RRT 0.76: 0.05%
  RRT 0.78 MW = 557: BRL (BRL means below reporting limit (meaning less than 0.05% of tigecycline peak))
  RRT 1.12: BRL (BRL means below reporting limit (meaning less than 0.05% of tigecycline peak))
  RRT 1.45: 0.07%
  RRT 1.58: BRL (BRL means below reporting limit (meaning less than 0.05% of tigecycline peak))
  RRT 1.64 Mino: 0.12%
  RRT 1.67 MW = 556: 0.07%
  RRT 1.85 MW = 597: 0.08%
  Strength: 19.240 mg/mL
  Total: 0.73%
[3]
  RRT 0.12 MW = 633: BRL (BRL means below reporting limit (meaning less than 0.05% of tigecycline peak))
  RRT 0.23 MW = 572: BRL (BRL means below reporting limit (meaning less than 0.05% of tigecycline peak))
  RRT 0.50 MW = 601: BRL (BRL means below reporting limit (meaning less than 0.05% of tigecycline peak))
  RRT 0.55 MW = 583: BRL (BRL means below reporting limit (meaning less than 0.05% of tigecycline peak))
  RRT 0.58: 0.08%
  RRT 0.64 9-Amino: BRL (BRL means below reporting limit (meaning less than 0.05% of tigecycline peak))
  RRT 0.74 Epimer: 0.29%
  RRT 0.76: BRL (BRL means below reporting limit (meaning less than 0.05% of tigecycline peak))
  RRT 0.78 MW = 557: BRL (BRL means below reporting limit (meaning less than 0.05% of tigecycline peak))
  RRT 1.12: BRL (BRL means below reporting limit (meaning less than 0.05% of tigecycline peak))
  RRT 1.45: 0.09%
  RRT 1.58: BRL (BRL means below reporting limit (meaning less than 0.05% of tigecycline peak))
  RRT 1.64 Mino: 0.09%
  RRT 1.67 MW = 556: (<0.05) %
  RRT 1.85 MW = 597: 0.08%
  Strength: 19.193 mg/mL
  Total: 0.62%
Run #N, pH 8.2, Oxygen = 0.1 mg/L
  RRT 1.12: BRL (BRL means below reporting limit (meaning less than 0.05% of tigecycline peak))
[4]
  RRT 0.12 MW = 633: BRL (BRL means below reporting limit (meaning less than 0.05% of tigecycline peak))
  RRT 0.23 MW = 572: BRL (BRL means below reporting limit (meaning less than 0.05% of tigecycline peak))
  RRT 0.50 MW = 601: BRL (BRL means below reporting limit (meaning less than 0.05% of tigecycline peak))
  RRT 0.55 MW = 583: BRL (BRL means below reporting limit (meaning less than 0.05% of tigecycline peak))
  RRT 0.58: 0.07%
  RRT 0.64 9-Amino: BRL (BRL means below reporting limit (meaning less than 0.05% of tigecycline peak))
  RRT 0.74 Epimer: 0.20%
  RRT 0.76: BRL (BRL means below reporting limit (meaning less than 0.05% of tigecycline peak))
  RRT 0.78 MW = 557: BRL (BRL means below reporting limit (meaning less than 0.05% of tigecycline peak))
  RRT 1.12: BRL (BRL means below reporting limit (meaning less than 0.05% of tigecycline peak))
  RRT 1.45: 0.07%
  RRT 1.58: BRL (BRL means below reporting limit (meaning less than 0.05% of tigecycline peak))
  RRT 1.64 Mino: (<0.05) %
  RRT 1.67 MW = 556: BRL (BRL means below reporting limit (meaning less than 0.05% of tigecycline peak))
  RRT 1.85 MW = 597: 0.11%
  Strength: 19.343 mg/mL
  Total: 0.46%
[5]
  RRT 0.12 MW = 633: BRL (BRL means below reporting limit (meaning less than 0.05% of tigecycline peak))
  RRT 0.23 MW = 572: BRL (BRL means below reporting limit (meaning less than 0.05% of tigecycline peak))
  RRT 0.50 MW = 601: BRL (BRL means below reporting limit (meaning less than 0.05% of tigecycline peak))
  RRT 0.55 MW = 583: 0.06%
  RRT 0.58: 0.06%
  RRT 0.64 9-Amino: BRL (BRL means below reporting limit (meaning less than 0.05% of tigecycline peak))
  RRT 0.74 Epimer: 0.29%
  RRT 0.76: 0.05%
  RRT 0.78 MW = 557: BRL (BRL means below reporting limit (meaning less than 0.05% of tigecycline peak))
  RRT 1.45: 0.09%
  RRT 1.58: BRL (BRL means below reporting limit (meaning less than 0.05% of tigecycline peak))
  RRT 1.64 Mino: 0.08%
  RRT 1.67 MW = 556: BRL (BRL means below reporting limit (meaning less than 0.05% of tigecycline peak))
  RRT 1.85 MW = 597: 0.09%
  Strength: 19.415 mg/mL
  Total: 0.72%
[6]
  RRT 0.12 MW = 633: BRL (BRL means below reporting limit (meaning less than 0.05% of tigecycline peak))
  RRT 0.23 MW = 572: BRL (BRL means below reporting limit (meaning less than 0.05% of tigecycline peak))
  RRT 0.50 MW = 601: BRL (BRL means below reporting limit (meaning less than 0.05% of tigecycline peak))
  RRT 0.55 MW = 583: BRL (BRL means below reporting limit (meaning less than 0.05% of tigecycline peak))
  RRT 0.58: 0.07%
  RRT 0.64 9-Amino: BRL (BRL means below reporting limit (meaning less than 0.05% of tigecycline peak))
  RRT 0.74 Epimer: 0.21%
  RRT 0.76: BRL (BRL means below reporting limit (meaning less than 0.05% of tigecycline peak))
